# System: A549 cells
# Assay: In vitro toxicity analysis, viability after 3 days of treatment
# Assay type: cell-based
# Settings: incubated with treatment for 3 days
# Experimental: Scale bar=200 nm. […] Cells were incubated with treatment for 5 days, and viability was assessed. […] Right lower panel: In vitro toxicity analysis of PGC-Cisplatin and cisplatin alone in A549 cells. Cells were incubated with treatment for 3 days, and viability was assessed.
# PGC-Pax and PGC-Cisplatin nanoparticles are synthesized using a miniemulsion technique. Briefly, the polymer is added to dichloromethane, and the organic phase is dispersed via sonication into an aqueous phase, containing sodium dodecyl sulfate as a surfactant.
smiles,measurement,value
N.N.[Cl][Pt][Cl] [cisplatin],IC50,0.9273 µg/mL
